Experimental data reported in US20250163086A1, “Crystalline Forms” (Viatris Asia Pacific Pte. Ltd., priority 2016, published 2025).

Assay: Water content of the crystalline forms (gravimetric vapour sorption, 25° C.)
Assay type: physicochemical
Conditions: water content varies as a function of relative humidity; GVS profiles 20 to 75% RH at 25° C. (FIGS. 4-6); hydrochloride
Method: Measurements were performed on an IGASORP Model HAS-036-080 moisture sorption instrument (Hiden Isochema, Warrington, UK) operated in stepping mode at 25° C. The sample was allowed to equilibrate at the starting relative humidity (RH) before starting a pre-defined humidity program in steps of 5% ΔRH and with a maximal equilibration time of 24 hours per step. About 20 to 30 mg of each sample was used.

| coordinated and/or non-coordinated water comprised in the crystalline form | SMILES |
| --- | --- |
| 0 to 3% | CCCCOC(=O)N1CCN(C(=O)[C@H](CP(=O)(O)O)NC(=O)c2cc(N3CC[C@H](OC)C3)nc(-c3ccccc3)n2)CC1.Cl [Crystalline form 1, 4-((R)-2-{[6-((S)-3-methoxy-pyrrolidin-1-yl)-2-phenyl-pyrimidine-4-carbonyl]-amino}-3-phosphono-propionyl)-piperazine-1-carboxylic acid butyl ester hydrochloride] |
| 5 to 10% | CCCCOC(=O)N1CCN(C(=O)[C@H](CP(=O)(O)O)NC(=O)c2cc(N3CC[C@H](OC)C3)nc(-c3ccccc3)n2)CC1.Cl [Crystalline form 2, 4-((R)-2-{[6-((S)-3-methoxy-pyrrolidin-1-yl)-2-phenyl-pyrimidine-4-carbonyl]-amino}-3-phosphono-propionyl)-piperazine-1-carboxylic acid butyl ester hydrochloride] |
| 2.5 to 8% | CCCCOC(=O)N1CCN(C(=O)[C@H](CP(=O)(O)O)NC(=O)c2cc(N3CC[C@H](OC)C3)nc(-c3ccccc3)n2)CC1.Cl [Crystalline form 3, 4-((R)-2-{[6-((S)-3-methoxy-pyrrolidin-1-yl)-2-phenyl-pyrimidine-4-carbonyl]-amino}-3-phosphono-propionyl)-piperazine-1-carboxylic acid butyl ester hydrochloride] |
